In patent US8349850B2, “Heterocyclic compounds and uses thereof in the treatment of sexual disorders” (ATIR Holding S.A., priority 2006, dated 2013):

Columns and labels:
D4.4 receptor = biological target: T1, D4.4 receptor (Homo sapiens, UniProt P21917); experiment: Competitive binding to D4.4 dopamine receptor ([3H]-YM-09151-2 radioligand); conditions: 5 mcM compound; human recombinant D4.4 in CHO cells; na = no activity
T1 construct: expressed in transfected cells; host or cells: CHO cells
T1 sequence (P21917 1-419): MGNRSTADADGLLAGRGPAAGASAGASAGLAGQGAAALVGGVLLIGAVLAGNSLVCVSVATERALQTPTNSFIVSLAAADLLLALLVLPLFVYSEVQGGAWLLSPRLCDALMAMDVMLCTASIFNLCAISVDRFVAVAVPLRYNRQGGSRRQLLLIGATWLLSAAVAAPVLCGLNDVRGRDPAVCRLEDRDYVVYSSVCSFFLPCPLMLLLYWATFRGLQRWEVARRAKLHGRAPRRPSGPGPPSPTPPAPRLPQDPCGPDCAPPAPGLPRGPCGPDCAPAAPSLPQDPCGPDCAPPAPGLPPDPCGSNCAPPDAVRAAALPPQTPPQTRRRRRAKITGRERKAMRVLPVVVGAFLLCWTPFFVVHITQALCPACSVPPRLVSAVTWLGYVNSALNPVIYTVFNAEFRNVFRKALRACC
Description: (§1) Compounds were assayed for competitive binding to D2 SHORT and D4.4 type dopamine receptors. Both receptor types are expressed as human recombinant proteins in CHO cells, as described, for example, in Jarvis et al. (1973); Van Tol et al. (1991) and Van Tol et al. (1992).
(§2) Determination of binding to D4.4 receptor was performed using [^3H]-YM-09151-2 (70-87 Ci/mmol, 0.3 nM), as a radioligand, in with the presence of various concentrations of the tested compound. Reactions were carried out in 50 mM TRIS-HCl (pH 7.4) containing 5 mM MgCl2, 5 mM EDTA, 5 mM KCl and 1.5 mM CaCl2, for 60 minutes at 22° C. The reaction was terminated by rapid vacuum filtration onto glass fiber filters. Radioactivity trapped onto the filters was determined (counted) and compared to control values in order to accurately evaluate any interaction of the tested compound(s) with the cloned dopamine D4.4 binding site.

[1] = biological target: T2, Human recombinant dopamine D4.4 receptors expressed in CHO-K1 cells (Homo sapiens, UniProt P21917); experiment: GTPgammaS Cellular Assay (agonist response); type: biochemical; conditions: relative to the 1 μM dopamine response; tested at 5, 1, 0.1, 0.01 μM (concentration of tabulated value not given); na = no activity; read-out: D4.4(h) GTPgammaS^35 Cellular Assay, Agonist Response, %
T2 construct: expressed in transfected cells; host or cells: CHO-K1 cells (membranes)
T2 sequence (P21917 1-419): T1 sequence (P21917 1-419)
Description: Human recombinant dopamine D4.4 receptors expressed in CHO-K1 cells were used. The tested compound was pre-incubated with 0.1 mg/ml membranes and 10 μM GDP for 20 minutes at 25° C. in modified HEPES buffer (pH 7.4). SPA beads were then added and the mixture was maintained for additional 60 minutes at 30° C. The reaction was initiated by the addition of 0.3 nM [^35S]GTPγS, and the obtained reaction mixture were incubated for 30 minutes. Test compound-induced increase of [^35S]GTPγS binding by 50 percent or more (≧50%) relative to the 1 μM dopamine response indicated dopamine D4.4 agonist activity. Test compound-induced inhibition of 1 μM dopamine-induced increase of [^35S]GTPγS binding response by 50 percent or more (≧50%) indicated receptor antagonist activity. Compounds were tested at concentrations of 5, 1, 0.1, 0.01 μM.

[2] = tested on: D2 SHORT and D4.4 type dopamine receptors; experiment: D4/D2 binding ratio from competitive binding to D4.4 and D2 short receptors; design: species or system human; conditions: ratio of concentrations required to inhibit 50% of radioligand binding for each receptor
Description: as §1
Determination of binding to D2 short receptor was performed using [^3H]-spiperone, a D2 receptor ligand (Gundlach et al., 1984), as a radioligand (20-60 Ci/mmol, 0.2 nM) in the presence of various concentrations of the tested compound. Reactions were carried out in 50 mM TRIS-HCl (pH 7.4) containing 120 mM NaCl, 5 mM KCl, 5 mM MgCl2 and 1 mM EDTA, for 60 minutes at 25° C. The reaction was terminated by rapid vacuum filtration onto glass fiber filters. Radioactivity trapped onto the filters was determined (counted) and compared to control values in order to accurately evaluate any interaction of the test compound(s) with the cloned dopamine D2 short binding site.
as §2
D4/D2 binding ratios were determined based on the ratio of the concentration of each tested compound required to inhibit 50% of the radioligand binding for each receptor.

[3] = biological target: T3, PDE5 partially purified from human platelets (Homo sapiens, UniProt O76074); experiment: Phosphodiesterase Type 5 (PDE5) Inhibition; type: biochemical; conditions: for IC50: read-out: PDE5 IC50, 10^−6 M; for exhibit both PDE5 inhibition and D4 agonist activity (dual activity): referring to Table 2 (PDE5 and D4 assays); for inhibition at 50 µM: 50 mcM compound, 1 μM cGMP
T3 construct: PDE5 partially purified from human platelets was used; from tissue; host or cells: human platelets
Description: Phosphodiesterase type 5 (PDE5) catalyzes the conversion of cAMP or cGMP to their respective monophosphate forms. PDE5 has a high Km for cAMP and a low Km for cGMP, is insensitive to Ca^2+/calmodulin or cGMP regulation, and is relatively sensitive to inhibitors such as dipyridamol and zaprinast.
PDE5 partially purified from human platelets was used. The tested compound (at a concentration of 0.1, 1, 20 or 50 μM) and/or vehicle was incubated with 3.5 μg enzyme and 1 μM cGMP containing 0.01 μM [^3H]cGMP in Tris buffer pH 7.5 for 20 minutes at 30° C. Since enzyme activity may change from lot to lot, the concentration used was adjusted if required.
The reaction was terminated by boiling the reaction mixture for 2 minutes. The obtained GMP was then converted to guanosine by addition of 10 mg/ml snake venom nucleotidase and further incubation at 30° C. for 10 minutes. Unhydrolyzed cGMP was bound to AG1-X2 resin, and remaining [^3H]Guanosine in the aqueous phase was quantitated by scintillation counting.

[4] = 'active' = observed activity not quantitated

| SMILES | inhibition at 5 µM (D4.4 receptor) [%] | Emax [1] [%] | D4/D2 Selectivity [2] | IC50 [3, 4] [µM] | exhibit both PDE5 inhibition and D4 agonist activity (dual activity) [3] | inhibition at 50 µM [3] [%] | PDE5 IC50, 10^−6 M [3, 4] |
| --- | --- | --- | --- | --- | --- | --- | --- |
| N#Cc1ccccc1N1CCN(Cc2nc3ccccc3c(=O)[nH]2)CC1 [Compound 110, 2-{4-[(4-oxo-3,4-dihydroquinazolin-2-yl)methyl]piperazin-1-yl}benzonitrile] | 52 | 69 | >500 |  |  |  |  |
| O=c1[nH]c(CN2CCN(c3cccc(O)c3)CC2)nc2ccccc12 [Compound 113, 2-{[4-(3-hydroxyphenyl)piperazin-1-yl]methyl}quinazolin-4(3H)-one] | 91 | 42 | ~50 | 20 | both PDE5 inhibition and D4 agonist activity |  |  |
| O=c1[nH]c(CN2CCN(c3ccccc3Cl)CC2)nc2ccccc12 [Compound 109, 2-{[4-(2-chlorophenyl)piperazin-1-yl]methyl}quinazolin-4(3H)-one] | 57 | 54 | >100 |  |  |  |  |
| O=c1cc(CN2CC=C(c3ccccc3)CC2)nc2ccccn12 [Compound 301, 2-[(4-phenyl-3,6-dihydropyridin-1(2H)-yl)methyl]-4H-pyrido[1,2-a]pyrimidin-4-one] | 59 | 69 | ~10 |  |  |  |  |
| O=c1[nH]c(CN2CCN(c3ccccc3F)CC2)nc2ccccc12 [Compound 104, 2-{[4-(2-fluorophenyl)piperazin-1-yl]methyl}quinazolin-4(3H)-one] | 59 | 62 | >100 |  |  |  |  |
| O=c1[nH]c(CN2CC=C(c3ccccc3)CC2)nc2ccccc12 [Compound 124, 2-[(4-phenyl-3,6-dihydropyridin-1(2H)-yl)methyl]quinazolin-4(3H)-one] | 73 | 57 | ~85 |  |  |  |  |
| O=c1cc(CN2CC=C(c3ccccc3)CC2)oc2ccccc12 [Compound 201, 2-[(4-phenyl-3,6-dihydropyridin-1(2H)-yl)methyl]-4H-chromen-4-one] | 72 | 75 | ~10 |  |  |  |  |
| O=c1[nH]c(CN2CCN(c3ncccn3)CC2)nc2cc(Cl)ccc12 [Compound B-72, 7-chloro-2-((4-(pyrimidin-2-yl)piperazin-1-yl)methyl)quinazolin-4(3H)-one] | 70 |  |  | 2 | both PDE5 inhibition and D4 agonist activity | 62 |  |
| CCOc1ccccc1N1CCN(Cc2nc3ccccc3c(=O)[nH]2)CC1 [Compound 108, 2-{[4-(2-ethoxyphenyl)piperazin-1-yl]methyl}quinazolin-4(3H)-one] | 93 | 49 | >100 |  |  |  |  |
| COc1cc2nc(CN3CCN(c4cccc(O)c4)CC3)[nH]c(=O)c2cc1OC [Compound B-4, 2-((4-(3-hydroxyphenyl)piperazin-1-yl)methyl)-6,7-dimethoxyquinazolin-4(3H)-one] | 91 |  |  |  |  | 25 | active |
| COc1ccccc1N1CCN(Cc2nc3ccccc3c(=O)[nH]2)CC1 [Compound 107, 2-{[4-(2-methoxyphenyl)piperazin-1-yl]methyl}quinazolin-4(3H)-one] | 88 | 44 | >70 |  |  |  |  |
